In patent publication US20090155784A1, “ASSESSMENT OF ASTHMA AND ALLERGEN-DEPENDENT GENE EXPRESSION” (Wyeth, priority 2007, published 2009):

System: human whole blood
Assay: human whole blood assay verifying inhibitory activity of the inhibitor samples
Type: cell-based

Q: How did the “inhibitory activity in a human whole blood assay” value turn out when `CC(c1cc2ccccc2s1)N(O)C(N)=O` (stereo not shown) [Zileuton] was run?
A: verified
